The values that follow come from ChEMBL document CHEMBL1156974, “Design, synthesis and in vitro/in vivo evaluation of orally bioavailable prodrugs of a catechol-O-methyltransferase inhibitor” (Bioorg Med Chem Lett, 2010).

In general, half-life refers to how long it takes for the measured level to halve. In general, pKi refers to −log10 of the Ki, conventionally taken in molar units. In general, solubility refers to the dissolved amount per volume that the medium holds. For orientation: logD means the decadic logarithm of the distribution of all forms, ionised or not, between an organic phase and buffer at a given pH.

The nature of data set [1]: Half life in human serum by HPLC analysis. It is filed as ADME, cell-free.
A short description of data set [2]: Chemical stability in phosphate buffer assessed as hydrolysis half life at pH 7.4 by HPLC analysis. It is filed as physicochemical.
Data set [3] concerns the target T1, Catechol O-methyltransferase (Homo sapiens, UniProt P21964).
T1 sequence (P21964 whole entry): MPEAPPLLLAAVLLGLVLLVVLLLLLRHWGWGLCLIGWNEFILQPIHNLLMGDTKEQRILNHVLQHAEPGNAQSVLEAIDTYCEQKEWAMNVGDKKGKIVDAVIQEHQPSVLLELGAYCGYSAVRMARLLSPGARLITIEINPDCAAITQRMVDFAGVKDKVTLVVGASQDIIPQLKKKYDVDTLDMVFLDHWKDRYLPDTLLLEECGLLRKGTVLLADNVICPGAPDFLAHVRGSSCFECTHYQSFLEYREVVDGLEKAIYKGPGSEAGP
The experiment in a line: Inhibition of human recombinant COMT by microplate screening assay.

A short description of data set [4]: Uncoupling activity in Wistar rat mitochondria assessed as increase in oxygen consumption by mitochondrial respiration assay relative to 10 uM dinitrophenol. It is filed as ADME.
The nature of data set [5]: Half life in rat liver homogenate by HPLC analysis. It is filed as ADME, tissue-based.
A short description of data set [6]: Chemical stability in fasted state simulated intestinal fluid assessed as hydrolysis half life by HPLC analysis. It is filed as physicochemical.
Data set [7] can be described thus: Chemical stability in acetate buffer assessed as hydrolysis half life at pH 4.0 by HPLC analysis. It is filed as physicochemical.
Another data set relates to Rattus norvegicus. The experiment in a line: AUC in Wistar rat at 10 umol/kg, po up to 6 hrs by LC/MS/MS relative to 3-Chloro-5,6-dihydroxy-7-nitro-benzo[b]thiophene-2-carboxylic acid. It is filed as ADME, organism-based, Plasma. As to conditions: in vivo.
A short description of data set [8]: Aqueous solubility in HCl buffer at pH 1.2 by HPLC analysis. It is filed as physicochemical.
A short description of data set [9]: Aqueous solubility in acetate buffer at pH 4.0 by HPLC analysis. It is filed as physicochemical.
Data set [10] in a line: Aqueous solubility in phosphate buffer at pH 7.4 by HPLC analysis. It is filed as physicochemical.
Data set [11] is described as follows: Distribution coefficient, log D at pH 7.4 by HPLC analysis. To be noted: octanol/water. It is filed as physicochemical.
Data set [12] is described as follows: Chemical stability in fasted state simulated intestinal fluid up to 8 hrs by HPLC analysis. It is filed as physicochemical. To be noted: simulated gi fluid.
In another data set the test system is Serum. Briefly: Metabolic stability in human serum up to 8 hrs by HPLC analysis. It is filed as ADME, cell-free.
The nature of data set [13]: Chemical stability in phosphate buffer at pH 7.4 up to 1 week by HPLC analysis. It is filed as physicochemical. To be noted: pH 7.4, 168 h.
A short description of data set [14]: Distribution coefficient, log D at pH 4.0 by HPLC analysis. It is filed as physicochemical. As to conditions: octanol/water.
Data set [15] in a line: Distribution coefficient, log D at pH 1.2 by HPLC analysis. It is filed as physicochemical. To be noted: octanol/water.
Data set [16] is described as follows: Chemical stability in […] up to 1 week by HPLC analysis. It is filed as physicochemical. As to conditions: pH 4, 168 h.
[17] abbreviates: HCl buffer, read-out: solubility.
Where [18] appears, read: acetate buffer, read-out: solubility.
The mark [19] stands for this setting: buffer, BLD = below limit of detection.

SMILES strings stand for the structures. pKi: −log10 of the molar value. ≈ marks a conversion by molar mass, not a printed value.

In the case of `CCCC(=O)OCOC(=O)c1sc2c([N+](=O)[O-])c(O)c(O)cc2c1Cl`, the half-life was 318 min in data set [1], 150 min in data set [2] and at most 1 min in data set [5]. Besides, the pKi in data set [3] is 7.97. In addition, the Uncoupling concentration in data set [4] was over 50 µM.

For the compound `CC(C)C(N)C(=O)OCOC(=O)c1sc2c([N+](=O)[O-])c(O)c(O)cc2c1Cl` (stereo unspecified), the half-life in data set [6] is 1.32 days; in data set [7], 1.7 days; in data set [1], 3.6 min; in [2], 120 min; in data set [5], at most 1 min. The “fold change (FC)” value in the data set with Rattus norvegicus worked out at 0.4. Besides, the figures for the solubility in [8] (setting [17]), in data set [9] (setting [18]) and in data set [10] were 6600 µg/mL (≈ 15800 µM), 17.5 µg/mL (≈ 41.8 µM) and 10 µg/mL (≈ 23.9 µM), respectively. Also, the pKi in data set [3] is 8.22. Besides, the Uncoupling concentration in [4] is 25 µM.

On to `O=C(OCc1coc(=O)o1)c1sc2c([N+](=O)[O-])c(O)c(O)cc2c1Cl`, for which the half-life in data set [6] was 6.96 days; in data set [7], 3.9 days; in [1], 1.8 min; in data set [2], 702 min; in [5] it was at most 1 min. Moreover, the “fold change (FC)” value in the data set on Rattus norvegicus was 2.1. For the same compound, the negative-log Ki (pKi) in data set [3] is 8.80.

For `CC(OC(=O)c1sc2c([N+](=O)[O-])c(O)c(O)cc2c1Cl)OC(=O)C(C)C` (stereo unspecified), in data set [11] (read-out: logD), the log distribution coefficient (logD) was 3.02. For the same compound, the “fold change (FC)” value with Rattus norvegicus stood at 0.5. For the same compound, the half-life in data set [1] is 1940 min; in data set [2], 2880 min; in [5], at most 1 min. Also, the solubility result was “BLD” in [8] (setting [19]), 0.6 µg/mL (≈ 1.49 µM) in data set [9] (setting [18]) and 258 µg/mL (≈ 639 µM) in data set [10]. Moreover, the pKi in [3] is 7.77. The Uncoupling concentration in data set [4] is over 50 µM. Besides, the Stability result in data set [12] is listed as “Stable”.

For `CCCC(=O)OC(C)OC(=O)c1sc2c([N+](=O)[O-])c(O)c(O)cc2c1Cl` (stereo unspecified), in data set [11] (read-out: logD), the logD came to 2.16. In addition, the half-life in [1] is 1500 min; in data set [2], 270 min; in data set [5] it was at most 1 min. The solubility came to 0.5 µg/mL (≈ 1.24 µM) in [8] (setting [17]), 4.6 µg/mL (≈ 11.4 µM) in data set [9] (setting [18]) and 60.4 µg/mL (≈ 150 µM) in [10]. The pKi in [3] is 7.78. The Uncoupling concentration in data set [4] was over 50 µM.

Consider `CCCOC(=O)c1sc2c([N+](=O)[O-])c(O)c(O)cc2c1Cl`, for which, in data set [11] (read-out: logD), the logD amounted to 2.45. Further, the half-life in data set [7] was 31 days; in data set [5], 20.4 min. The Stability result (in the data set on Serum; in data set [13]) was “Stable” each time. For the same compound, the solubility result in data set [8] (setting [19]) is “BLD”; in data set [9] (setting [18]), 0.5 µg/mL (≈ 1.51 µM); in [10], 10.8 µg/mL (≈ 32.6 µM). Also, the pKi in [3] is 8.04. Moreover, the Uncoupling concentration in data set [4] is over 5 µM.

`O=C(O)c1sc2c([N+](=O)[O-])c(O)c(O)cc2c1Cl`: the logD in data set [11] (read-out: logD) came to 0.06; in [14], 1.8; in data set [15], 3.64. Moreover, the results for the solubility in data set [8] (setting [17]), in data set [9] (setting [18]) and in [10] were 3.9 µg/mL (≈ 13.5 µM), 53 µg/mL (≈ 183 µM) and 15000 µg/mL (≈ 51800 µM), respectively. Besides, the Uncoupling concentration in data set [4] is over 50 µM. Also, the Stability entry in [12] is reported as “Stable”.

As to `CCCCOC(=O)c1sc2c([N+](=O)[O-])c(O)c(O)cc2c1Cl`, the logD entry in [11] (BLD = below limit of detection) is “BLD”. The Stability entry (in the data set with Serum; in data set [13]) was “Stable” throughout. The solubility result in data set [8] (setting [19]) is “BLD”; in data set [9] (setting [18]), 0.7 µg/mL (≈ 2.02 µM); in [10], 3.2 µg/mL (≈ 9.25 µM). For the same compound, the pKi in [3] was 8.89. In addition, in data set [4], the Uncoupling concentration is over 2.5 µM. In data set [5], this compound showed a half-life of 41.9 min.

Take `O=C(OCc1ccccc1)c1sc2c([N+](=O)[O-])c(O)c(O)cc2c1Cl`: the logD entry in data set [11] (BLD = below limit of detection) is given as “BLD”. In the data set on Serum, the Stability entry is recorded as “Stable”. In addition, the solubility result is “BLD” in data set [8] (setting [19]), “BLD” in data set [9] (setting [19]) and 6.9 µg/mL (≈ 18.2 µM) in data set [10]. Also, the half-life in data set [2] was 1300 min; in [5], 51.9 min. Moreover, in data set [3], the pKi was 7.99. Moreover, the Uncoupling concentration in data set [4] is over 10 µM.

Take `COC(=O)c1sc2c([N+](=O)[O-])c(O)c(O)cc2c1Cl`: the logD in data set [11] (read-out: logD) came out at 1.51. For the same compound, the Stability result (with Serum; in [13]; in data set [16]) was “Stable” throughout. The solubility in data set [8] (setting [17]) was determined as 0.7 µg/mL (≈ 2.31 µM); in data set [9] (setting [18]), 4.2 µg/mL (≈ 13.8 µM); in [10] it was 11.4 µg/mL (≈ 37.5 µM). For the same compound, the pKi in data set [3] was 8.66. Besides, the Uncoupling concentration in [4] is over 10 µM. In [5], this compound had a half-life of 19.8 min.

As to `CC(C)OC(=O)c1sc2c([N+](=O)[O-])c(O)c(O)cc2c1Cl`, the logD in data set [11] (read-out: logD) was 1.14. Moreover, the half-life was 23 days in [7] and 131 min in data set [5]. The Stability result (with Serum; in [13]) was “Stable” throughout. Further, the figures for the solubility entry in [8] (setting [19]), in data set [9] (setting [18]) and in data set [10] were “BLD”, 0.5 µg/mL (≈ 1.51 µM) and 18.7 µg/mL (≈ 56.4 µM), respectively. In data set [3], the pKi was 8.96. Also, in data set [4], the Uncoupling concentration was over 1 µM.

On to `CC(C)C(=O)OCOC(=O)c1sc2c([N+](=O)[O-])c(O)c(O)cc2c1Cl`, for which, in data set [11] (read-out: logD), the pH-dependent lipophilicity (logD) came out at 2.91. The half-life was 8.4 days in data set [7], 306 min in [1], 456 min in data set [2] and at most 1 min in [5]. In addition, in the data set on Rattus norvegicus, the “fold change (FC)” value amounted to 2. Further, the values for the solubility result in [8] (setting [19]), in data set [9] (setting [19]) and in data set [10] were “BLD”, “BLD” and at least 200 µg/mL, respectively. Moreover, the pKi in data set [3] was 7.77. Further, the Uncoupling concentration in data set [4] is over 50 µM. The Stability entry in [12] is “Stable”.
